Test results taken from patent EP1923473B1, “Bis-diglycolamides (BISDGA) as new extractants for lanthanides [Ln(III)] and actinides [An(III)] from aqueous high-level wastes” (Universidad Autónoma de Madrid, priority 2006, dated 2008).

Assays:
Format in all cases: physicochemical
[1] = Batch extraction from simulated HLLW from the PUREX process; conditions: 0.1 mol/L in TPH/1-octanol (90:10)
Excerpt: (§1) The feed solution used for the extraction tests is a simulated solution of an HLLW from the PUREX process, the composition of which is shown in Table 4. Table 4: Composition of the simulated HLLW-PUREX solution used for the extraction tests
(§2) The composition of the HLLW corresponds to a burn-up of 33 GWd/tHM, the generated volume of HLLW being 5000 1/t of fuel. The feed was spiked with ^241Am, ^244Cm, ^252Cf and ^152Eu. Oxalic acid and N-(2-hydroxyethyl)ethylenediaminotriacetate (HEDTA) were also added before the extraction tests.
(§3) 500 µL of the aqueous and organic phases were spiked with 10 µL of a tracer solution containing 241Am, 244Cm, 252Cf and ^152Eu, and were equilibrated for 10 minutes while they were stirred vigorously in a vortex stirrer. After the separation of the phases by centrifugation, 200 µL aliquots of each phase were taken for the determination of the concentration of ^241Am and ^152Eu using a high-purity germanium spectrometer system (EG&G Ortec). The nuclides ^241Am, ^244Cm and ^252Cf were measured by alpha spectrometry with an α-Analyst device of the company Canberra-Packard GmbH, Germany.
(§4) The concentrations of the stable elements were determined by mass spectrometry with an inductively coupled plasma source (ICP-MS) in a DRC Elan 6100 device of Perkin Elmer Sciex. The aqueous phase was measured directly after the appropriate dilution. The organic phase was analyzed after having mineralized the organic matter by microwave acid digestion and subsequent dilution.
(§5) The distribution coefficients were calculated for each element according to section C).
A 0.1 mol/L solution of compound 4 in the "TPH/1-octanol (90:10)%vol" mixture was prepared. Extraction experiments were carried out with said simulated HLLW in a pure form and also adding oxalic acid and HEDTA to it. These complexing agents have shown to be effective in the DIAMEX process for the complexing of Mo, Zr (H2C2O4) and Pd (HEDTA).

[2] = Extraction capability at different nitric acid concentrations in the aqueous phase; conditions: 0.1 mol/L in 1-octanol or TPH/1-octanol mixtures
Method: The organic solutions were prepared as indicated previously in section A). The aqueous solutions consisted of nitric acid solutions at different concentrations (0.06 mol/L, 0.11 mol/L, 0.65 mol/L, 1.0 mol/L, 3.1 mol/L and 6.7 mol/L) each of them spiked with 600 Bq of ^152Eu and 600 Bq of ^241Am. The nitric acid concentration of these solutions was determined by a potentiometric titration before and after the extraction equilibrium.
The organic solutions of the compound to be studied were equilibrated with the corresponding aqueous solution, according to the different nitric acid concentrations considered, as indicated previously in section B).
600 µL of equilibrated organic phase were contacted with 600 µL of the aqueous phase of the corresponding nitric acid concentration. […]
The influence of the concentration of aqueous nitric acid of the aqueous phase, from 0.05 mol/L to 7 mol/L, on the extraction of Am/Eu with compound 4 was studied in different TPH/1-octanol mixtures as solvent, and also in 100% 1-octanol. To that end, the distribution coefficients of Am(III) and Eu(III) were determined for compound 4 dissolved at 0.1 mol/L in 1-octanol and in the following TPH/1-octanol mixtures: 50:50, 75:25 and 90:10 by volume, for the following nitric acid concentrations of the solution containing Am(III)/Eu(III): 0.06 mol/L; 0.11 mol/L; 0.65 mol/L; 1.0 mol/L; 3.1 mol/L and 6.7 mol/L. […]

[3] = Batch extraction from simulated HLLW from the PUREX process; conditions: 0.1 mol/L in TPH/1-octanol (90:10); remark: listed apart in the source
Excerpt: as §1, §2, §3, §4, §5
Extraction experiments were carried out with said simulated HLLW in a pure form and also adding oxalic acid and HEDTA to it.

[4] = Oxalic acid 0.2 mol/L, HEDTA 0.05 mol/L, TBP 0.5 mol/L
[5] = Oxalic acid 0.2 mol/L, HEDTA 0.05 mol/L, TBP No
[6] = Oxalic acid 0.3 mol/L, HEDTA 0.05 mol/L, TBP 0.5 mol/L
[7] = Oxalic acid 0.3 mol/L, HEDTA 0.05 mol/L, TBP No
[8] = Oxalic acid No, HEDTA No, TBP 0.5 mol/L
[9] = Oxalic acid No, HEDTA No, TBP No

## 2-Dioctylcarbamoylmethoxy-N-[3-[(2-dioctylcarbamoyl-methoxy-acetylamino)methyl]benzyl]acetamide [Compound 4]
[1]; [4]
  Distribution coefficients Dy: 86
  Distribution coefficients Sb: 0.012
  Distribution coefficients Sn: 0.0087
  Distribution coefficients Tb: 54
  Distribution coefficients Te: 0.0012
[1]; [5]
  Distribution coefficients Dy: 171
  Distribution coefficients Sb: 0.011
  Distribution coefficients Sn: 0.0076
  Distribution coefficients Tb: 153
  Distribution coefficients Te: 0.0014
[1]; [6]
  Distribution coefficients Dy: 184
  Distribution coefficients Sb: 0.011
  Distribution coefficients Sn: 0.0072
  Distribution coefficients Tb: 77
  Distribution coefficients Te: 0.0011
[1]; [7]
  Distribution coefficients Dy: 195
  Distribution coefficients Sb: 0.012
  Distribution coefficients Sn: 0.0092
  Distribution coefficients Tb: 107
  Distribution coefficients Te: 0.0012
[1]; [8]
  Distribution coefficients Dy: 64
  Distribution coefficients Sb: 0.011
  Distribution coefficients Sn: 0.0089
  Distribution coefficients Tb: 57
  Distribution coefficients Te: 0.0012
[1]; [9]
  Distribution coefficients Dy: 141
  Distribution coefficients Sb: 0.012
  Distribution coefficients Sn: 0.0073
  Distribution coefficients Tb: 123
  Distribution coefficients Te: 0.0011
[2]
  extraction capability at diluted nitric acid concentrations: very low

## 2-Dioctylcarbamoylmethoxy-N-[3-[3-(2-dioctylcarbamoyl-methoxyacetylamino)propoxy]propyl]acetamide [Compound 18]
[3]; [4]
  Distribution coefficients Cr: 0.006
  Distribution coefficients Cu: 0.085
  Distribution coefficients Fe: 0.001
  Distribution coefficients Ni: 0.015
[3]; [5]
  Distribution coefficients Cr: 0.006
  Distribution coefficients Cu: 0.075
  Distribution coefficients Fe: 0.001
  Distribution coefficients Ni: 0.014
[3]; [6]
  Distribution coefficients Cr: 0.006
  Distribution coefficients Cu: 0.093
  Distribution coefficients Fe: 0.009
  Distribution coefficients Ni: 0.015
[3]; [7]
  Distribution coefficients Cr: 0.006
  Distribution coefficients Cu: 0.083
  Distribution coefficients Fe: 0.001
  Distribution coefficients Ni: 0.014
[3]; [8]
  Distribution coefficients Cr: 0.006
  Distribution coefficients Cu: 0.067
  Distribution coefficients Fe: 0.001
  Distribution coefficients Ni: 0.014
[3]; [9]
  Distribution coefficients Cr: 0.006
  Distribution coefficients Cu: 0.064
  Distribution coefficients Fe: 0.001
  Distribution coefficients Ni: 0.014
